The subject of series [1] is P. aeruginosa. As to conditions: cited from earlier work.
The subject of series [2] is S. epidermidis. To be noted: cited from earlier work.
Series [3] has as its system P. aeruginosa ATCC 15442. The series can be described thus: Antibacterial test of ozone applied by the patch. Type of series: cell-based. To be noted: initial 5 log CFU/mL concentration; within six hours of treatment. The method, then:
(§1) The antibacterial properties of the patch 10 were assessed by exposing multiple strains of antibiotic resistant bacteria (both Gram-negative and Gram-positive) to the ozone applied by the patch 10 for six hours, and measuring the living concentration every one to two hours. Experiments using two common strains of antibiotic resistant bacteria common in skin infections, S. epidermidis NRS101 and P. aeruginosa ATCC 15442, indicated positive results. […] FIGS. 8A through 8C show bacteria stain images of the samples before and after treatment, and a control. At first, all of the bacteria were stained green, and then any dead bacteria were re-stained with the red. These images show qualitatively that the bacteria before the treatment are living, and afterward are mostly dead. […] Additionally, results for the Gram-negative bacteria, P. aeruginosa, indicated even better results. […] FIGS. 8D, 8E, and 8F show similar stain images for P. aeruginosa.

The test system of series [4] is S. epidermidis NRS101. Kind of series: Antibacterial test of ozone applied by the patch. Type of series: cell-based. As to conditions: six hours of ozone exposure through the patch. The method, then: as §1
The subject of series [5] is human keratinocyte cells. Kind of series: Biocompatibility of adjunct therapy. The format is cell-based. As to conditions: six hour, 100 ppm ozone; nanofiber solution with or without antibiotic. The procedure: By studying the biocompatibility, it was determined that the treatment system was both effective and safe to use. To test this, human keratinocyte cells were either exposed to the ozone therapy (with or without antibiotics) or left as a control. In each case, cell samples were exposed to test inhibitory concentration of the nanofiber solution containing either linezolid, vancomycin, or no antibiotic. Tests were conducted under the same six hour and 100 ppm ozone parameters as the antibacterial studies.

In series [6] the test system is P. aeruginosa. Kind of series: Secondary study: pristine vs biofluid-preconditioned patch, bacteria spotted on filter paper. Type of series: cell-based. As to conditions: ozone for six hours. The procedure: A secondary study was also conducted on P. aeruginosa to verify that prolonged contact to a wound environment would not change antimicrobial properties. In each case, 100 μL of P. aeruginosa was diluted into 1 mL of PBS and spotted onto filter paper. Each experimental trial was exposed to the ozone for six hours. The first test was conducted through an untreated patch 10, while the second was conducted using a patch 10 that had been preconditioned by resting on a damp sponge filled with mammalian cell culture media overnight. FIGS. 9A and 9B report the results of the tests when compared to the controls, which were prepared in the same way, but exposed to no ozone treatment.

The subject of series [7] is normal mammary fibroblasts HMS-32 cells. The series can be described thus: Cytotoxicity of ozone treatment on human cells. Type of series: cell-based. The procedure:
FIGS. 10A through 10D include images of normal mammary fibroblasts HMS-32 cells initial (FIG. 10A), after six hours of ozone treatment (FIG. 10B), 24 hours after ozone treatment (FIG. 10C), and 48 hours after ozone treatment (FIG. 10D). Scale bar 10 micrometers. FIG. 10E contains a graph showing percentage of apoptotic cells at each time in a control group and an experimental group. Data was collected from triplicate samples, with error bars indicating standard deviation.
The possibility for the use of ozone to treat antibiotic resistant infections is also dependent on the apparatus not damaging the normal skin cells. Cytotoxic experimentation was conducted to determine how the ozone treatment would interact with human skin cells (FIG. 10A through 10D). […] Ozone treatment has been used to increase the healing process for chronic wounds, so there is good reason to believe a high level of biocompatibility exists. […] Similar to the stain imaging done for the antimicrobial results, FIGS. 10A through 10D are stain images that show the health of the cells at each time point. In each cell, F-actin was stained green, and the nuclei were stained blue. These images support finding minimal cytotoxicity because there is no noticeable difference in the images over time. […]

Series [8] concerns P. aeruginosa. The series can be described thus: Adjunct ozone and antibiotic therapy antibacterial test. The format is cell-based. As to conditions: ozone 100 ppm (4 mg/hr) for six hours; antibiotic 20 μg/mL; 37° C. The procedure:
To test the antibacterial effects of ozone in combination with antibiotics, a P. aeruginosa culture was inoculated in a solution of […] soy broth (TSB) and incubated overnight. A sample of the mature culture was diluted in new TSB at 1:50. The new culture media was then pipetted into test wells in triplicate at 1:10 with either linezolid or vancomycin solution in phosphate buffered saline (PBS) at 200 μg/mL. […] The bacterial samples were subject to the combination treatment of 100 ppm (4 mg/hr) ozone with vancomycin at 20 μg/mL and linezolid at 20 μg/mL. During testing, the test samples were kept at 37° C. At 2, 4, and six hours, 20 μL samples were withdrawn from the designated set of wells and plated on TSB agar plates. Bacterial colonies were counted after being incubated overnight at 37°. Experimental adjunct therapy samples were compared against treatment of only ozone, and control cultures exposed to antibiotics without the ozone. Because both antibiotics in the test (linezolid and vancomycin) are designed to be effective against G+ve bacteria, it was expected that neither will show any effect against the bacterial strain unless combined with ozone. Additionally, treatment was administered to in vitro colonies of P. aeruginosa under ideal conditions for bacterial growth.

`NC[C@H]1O[C@H](O[C@H]2[C@H](O)[C@@H](O[C@H]3O[C@H](CO)[C@@H](O)[C@H](N)[C@H]3O)[C@H](N)C[C@@H]2N)[C@H](N)C[C@@H]1O` [tobramycin]: in series [1], the “known effectiveness / resistance” value is on record as “resisted”.
Regarding `Cc1onc(-c2ccccc2)c1C(=O)N[C@@H]1C(=O)N2[C@@H]1SC(C)(C)[C@@H]2C(=O)O` [oxacillin], the “known effectiveness / resistance” value in series [2] was “resisted”.
With colistin, the “known effectiveness / resistance” value in series [1] is “known to be effective”.
As for `O=[O+][O-]` [ozone], in series [3], the eradication of bacteria entry is given as “completely eradicate”. In series [4], the “log10 reduction CFU/mL” value came out at 0.8 log10 reduction CFU/mL. Further, the “reduction from the starting inoculum” value in series [4] was “greater than 70%”. Also, the “percent of cell viability” value in series [5] is listed as “did not significantly change”. Also, the elimination of bacteria entry in series [6] (patch preconditioned overnight on sponge with mammalian cell culture media) and in series [6] (untreated (pristine) patch) was “complete elimination of bacteria” each time. The “increase in cell apoptosis” value in series [7] (after six, 24 and 48 hours) was “no significant increase in cell apaptosis”; in series [7] (over 48 hours after six hours of ozone exposure) it was 6.5%.
For the compound `CC(=O)NC[C@H]1CN(c2ccc(N3CCOCC3)c(F)c2)C(=O)O1` [linezolid], the “bacterial population (CFU/mL) compared to initial” value in series [8] is given as “did not inhibit the growth of the bacteria at all”.
Regarding `CN[C@H](CC(C)C)C(=O)N[C@H]1C(=O)N[C@@H](CC(N)=O)C(=O)N[C@H]2C(=O)N[C@H]3C(=O)N[C@H](C(=O)N[C@H](C(=O)O)c4cc(O)cc(O)c4-c4cc3ccc4O)[C@H](O)c3ccc(c(Cl)c3)Oc3cc2cc(c3O[C@@H]2O[C@H](CO)[C@@H](O)[C@H](O)[C@H]2O[C@H]2C[C@](C)(N)[C@H](O)[C@H](C)O2)Oc2ccc(cc2Cl)[C@H]1O` [vancomycin], the “known effectiveness / resistance” value in series [2] is “known to be effective”. The “bacterial population (CFU/mL) compared to initial” value in series [8] is “no impact on bacteria growth”.
Turning to `C[C@@H](O)[C@H]1C(=O)N2C(C(=O)O)=C(S[C@@H]3CN[C@H](C(=O)N(C)C)C3)[C@H](C)[C@H]12` [meropenem], in series [1], the “known effectiveness / resistance” value is “known to be effective”.
Take penicillin: the “known effectiveness / resistance” value in series [2] and in series [1] was “resisted” each time.

The values are drawn from patent US20230256217A1, “OZONE GENERATION APPARATUSES AND METHODS OF TREATING WOUNDS” (priority 2020, published 2023).
